Test results reported in US20200375949A1, “BISPHENOL COMPOUNDS” (THE TRUSTEES OF THE UNIVERSITY OF PENNSYLVANIA, priority 2017, published 2020).
Values after ≈ are worked out from the molar mass of the structure shown.

Experiments:
[1] = test system: red blood cells (mechanically defibrinated sheep blood); experiment: Hemolysis assay (cell lysis); format: cell-based; set-up: red blood cell lysis: unit not given here; conditions: 1 hour, 37° C.
Protocol: The effects of the compounds described herein to lyse cells was evaluated in this example. Hemolysis assays were performed on mechanically defibrinated sheep blood (Hemostat Labs: DSB030). 1.5 mL of blood was placed into a microcentrifuge tube and centrifuged at 10,000 rpm for ten minutes. The supernatant was removed and then the cells were resuspended with 1 mL of phosphate-buffered saline (PBS). The suspension was centrifuged as previously, the supernatant was removed, and cells were resuspended two more times. The final cell suspension was diluted twentyfold with PBS. The twentyfold suspension dilution was then aliquoted into microcentrifuge tubes containing compound serially diluted in PBS. TritonX (1% by volume) served as a positive control (100% lysis marker) and sterile PBS served as a negative control (0% lysis marker). Samples were then placed in an incubator at 37° C. and shaken at 200 rpm. After 1 hour, the samples were centrifuged at 10,000 rpm for ten minutes. The absorbance of the supernatant was measured with a UV spectrometer at a 540 nm wavelength. See, e.g., Peng, Chem. Comm. 2011, 47, 4896-4898.

[2] = test system: Streptococcus sanguinis strain 10904; experiment: MIC assay, S. sanguinis; format: cell-based; conditions: 5% CO2, 37° C., 20-24 hours
Excerpt: (§1) Streptococcus mutans wild-type strain UA159 was provided by Dr. Bettina Buttaro from Temple University Medical School, Philadelphia, Pa. Streptococcus gordonii strain DL1 and Streptococcus sanguinis strain 10904 were provided by Dr. Robert G. Quivey from University of Rochester Medical School. Streptococcus gordonii strain DL1 may be obtained from the American Type Culture Collection under accession #49818. Streptococcus sanguinis strain 10904 may be obtained from the National Collection of Type Cultures under accession #10904. Bacteria were routinely maintained on in Bacto™ Todd-Hewitt (TH) agar plates and liquid cultures were grown in Bacto™ Todd-Hewitt broth (THB). For growth of biofilms, THB was supplemented with 0.1% sucrose. Incubation was stagnant at 37° C. Bacterial strains Methicillin-Resistant Staphylococcus aureus HPV107, Staphylococcus epidermidis Fussel [NCTC 11047, R. Hugh 2466], Streptococcus sobrinus SL1 [CCM 6070, CNCTC 9/89], Enterococcus faecalis NCTC 775 [DSM 20478, JCM 8726, NCDO 581, Tissier], Pseudomonas aeruginosa [CCEB 481, MDB strain BU 277, NCIB 8295, NCPPB 1965, NCTC 10332, NRRL B-771, R. Hugh 815], Serratia marcescens BS 303 [CDC 813-60, NCIB 9155, NCTC 10211], and Acinetobacter baumannii 2208 [81, DSM 6974] were purchased from the American Type Culture Collection.
(§2) Stock solutions of compounds (10 mM) were serial diluted (200 μL, 100 μL, 50 μL, 10 μL, and 2 μL) in THB media in flat-bottom 96-well microtiter plates (total volume 100 μL). Bacterial cultures were grown in brain heart infusion or nutrient broth media to mid-exponential phase, back diluted to an OD of 0.1 and then inoculated into the 96-well plate to reach a final volume of 200 μL. Plates were inoculated at 37° C. in 5% CO2 for 20-24 hours upon which time wells were evaluated visually for bacterial growth and/or the wells' OD630 was evaluated via spectrophotometer. […] DMSO controls corresponding to each test concentration were performed. Biological triplicates were performed to confirm results.

[3] = test system: Streptococcus mutans wild-type strain UA159; experiment: MIC assay, S. mutans; format: cell-based; conditions: planktonic, 5% CO2, 37° C., 20-24 hours
Excerpt: as §1, §2

[4] = test system: Streptococcus gordonii strain DL1; experiment: MIC assay, S. gordonii; format: cell-based; conditions: 5% CO2, 37° C., 20-24 hours
Excerpt: as §1, §2

S. mutans = S. mutans MBC assay; format: cell-based, Streptococcus mutans; conditions: for MBC: Streptococcus mutans, 3-log reduction in CFU count (99.9% bacterial death); for bacteriostatic or bactericidal properties (regrow analysis, MIC vs MBC): S. mutans
Protocol: MIC assay was performed (above) and each well diluted (log-dilution) into a new 96-well microtiter plate. Five μL from each dilution was then plated on THB agar plates and incubated for 24 hours. Colony counts were performed to determine MBC which is defined as the concentration which there is a 3-log reduction in CFU count which corresponds to 99.9% bacterial death.

[5] = Concentration 500 μM, TritonX 100% lysis, PBS 0% lysis

MIC [2] [µM]	MIC [3] [µM]	MIC [4] [µM]	SMILES	also measured
32 (≈ 11 µg/mL)	32 (≈ 11 µg/mL)	32 (≈ 11 µg/mL)	Cc1cc(O)c(C)c(O)c1-c1cc(C(C)(C)C)c(O)c(C(C)(C)C)c1 [Compound A2, 3′,5′-Di-tert-3,6-methyl-[1,1′-biphenyl]-2,4,4′-triol]	MBC (S. mutans): 63 µM (≈ 21.6 µg/mL)
> 250	> 250	> 250	C=CCc1cc(-c2c(O)cc(C)c(C)c2C)cc(C(C)(C)C)c1O [Compound A6, 3′-Allyl-5′-(tert-butyl)-4,5,6-trimethyl-[1,1′-biphenyl]2,4′-diol]	–
125 (≈ 37.1 µg/mL)	> 250	125 (≈ 37.1 µg/mL)	C=CCc1cc(-c2cc(C)ccc2O)cc(C(C)(C)C)c1O [Compound A8, 3′-Allyl-5′-(tert-butyl)-5-methyl-[1,1′-biphenyl]2,4′-diol]	–
> 250	> 250	> 250	Cc1c(O)c(-c2cc(C(C)(C)C)c(O)c(C(C)(C)C)c2)c(C)c(-c2cc(C(C)(C)C)c(O)c(C(C)(C)C)c2)c1O [Compound A11, 3,3″,5,5″-Tetra-tert-butyl-2′,5′-dimethyl-[1,1′:3′,1″-terphenyl]-4,4′,4″,6′-tetraol]	–
63 (≈ 22 µg/mL)	63 (≈ 22 µg/mL)	63 (≈ 22 µg/mL)	CC(C)(C)c1cc(-c2c(O)ccc3ccccc23)cc(C(C)(C)C)c1O [Compound B3]	–
125 (≈ 45.6 µg/mL)	125 (≈ 45.6 µg/mL)	125 (≈ 45.6 µg/mL)	CC(C)(C)c1cc(-c2c(O)ccc3ccc(O)cc23)cc(C(C)(C)C)c1O [Compound B4, 1-(3,5-Di-tert-butyl-4-hydroxyphenol)naphthalene-2-7-diol]	–
4 (≈ 1.71 µg/mL)	8 (≈ 3.42 µg/mL)	16 (≈ 6.84 µg/mL)	CC(C)(C)c1cc(-c2c(O)ccc3cc(Br)ccc23)cc(C(C)(C)C)c1O [Compound B5, 6-Bromo-1-(3,5-di-tert-butyl-4-hydroxyphenyl)naphthalen-2-ol]	bacteriostatic or bactericidal properties (regrow analysis, MIC vs MBC) (S. mutans): bacteriostatic; MBC (S. mutans): 125 µM (≈ 53.4 µg/mL)
63 (≈ 22.8 µg/mL)	125 (≈ 45.3 µg/mL)	125 (≈ 45.3 µg/mL)	C=CCc1cc(-c2c(O)ccc3cc(OC)ccc23)cc(C(C)(C)C)c1O [Compound B7, 1-(3-Allyl-5-(tert-butyl)-4-hydroxyphenyl)-6-methoxynaphthalen-2-ol]	–
8 (≈ 3.29 µg/mL)	16 (≈ 6.58 µg/mL)	16 (≈ 6.58 µg/mL)	C=CCc1cc(-c2c(O)ccc3cc(Br)ccc23)cc(C(C)(C)C)c1O [Compound B8, 1-(3-Allyl-5-(tert-butyl)-4-hydroxyphenyl)-6-bromonaphthalen-2-ol]	bacteriostatic or bactericidal properties (regrow analysis, MIC vs MBC) (S. mutans): bactericidal; MBC (S. mutans): 32 µM (≈ 13.2 µg/mL)
250 (≈ 103 µg/mL)	> 250	250 (≈ 103 µg/mL)	CCCc1cc(-c2c(O)ccc3cc(Br)ccc23)cc(C(C)(C)C)c1O [Compound B12, 6-Bromo-1-(3-(tert-butyl)-4-hydroxy-5-propylphenyl)naphthalen-2-ol]	–
16 (≈ 8.59 µg/mL)	63 (≈ 33.8 µg/mL)	32 (≈ 17.2 µg/mL)	C=CCc1cc(-c2c(O)ccc3c(-c4cc(CC=C)c(O)c(C(C)(C)C)c4)c(O)ccc23)cc(C(C)(C)C)c1O [Compound B14, 1,5-Bis(3-allyl-5-(tert-butyl)-4-hydroxyphenyl)naphthalene-2,6-diol]	–

More lines, now with the values behind:

SMILES	MIC [2] [µM]	MIC [3] [µM]	MIC [4] [µM]	also measured
COc1cc(CCc2ccc(C(C)(C)C)c(O)c2)ccc1C(C)(C)C [Compound 1H-2, (tert-butyl)-5-(4-(tert-butyl)-3-methoxyphenethyl)phenol]	–	–	–	red blood cell lysis ([1]; Concentration 0.25 μM): 0.13; red blood cell lysis ([1]; Concentration 0.5 μM): −0.02; red blood cell lysis ([1]; Concentration 1 μM): −0.02; red blood cell lysis ([1]; Concentration 2 μM): −0.03; red blood cell lysis ([1]; Concentration 4 μM): 0.16; red blood cell lysis ([1]; Concentration 8 μM): −0.03; red blood cell lysis ([1]; Concentration 16 μM): −0.03; red blood cell lysis ([1]; Concentration 32 μM): −0.02; red blood cell lysis ([1]; Concentration 63 μM): 0.02; red blood cell lysis ([1]; Concentration 125 μM): 0.12; red blood cell lysis ([1]; Concentration 250 μM): 0.21; red blood cell lysis [1, 5]: 0.33
CC(C)(C)c1ccc(CCc2cccc(O)c2)cc1O [Compound 1H-3, 2-(tert-butyl)-5-(3-hydroxyphenethyl)phenol]	–	–	–	red blood cell lysis ([1]; Concentration 0.25 μM): 0.11; red blood cell lysis ([1]; Concentration 0.5 μM): 0.00; red blood cell lysis ([1]; Concentration 1 μM): −0.03; red blood cell lysis ([1]; Concentration 2 μM): −0.03; red blood cell lysis ([1]; Concentration 4 μM): −0.03; red blood cell lysis ([1]; Concentration 8 μM): 0.29; red blood cell lysis ([1]; Concentration 16 μM): −0.03; red blood cell lysis ([1]; Concentration 32 μM): −0.03; red blood cell lysis ([1]; Concentration 63 μM): 0.00; red blood cell lysis ([1]; Concentration 125 μM): 0.46; red blood cell lysis ([1]; Concentration 250 μM): 0.69; red blood cell lysis [1, 5]: 0.81
COc1cccc(CCc2ccccc2O)c1 [Compound 6]	–	–	–	red blood cell lysis ([1]; Concentration 0.25 μM): 0.03; red blood cell lysis ([1]; Concentration 0.5 μM): −0.02; red blood cell lysis ([1]; Concentration 1 μM): −0.03; red blood cell lysis ([1]; Concentration 2 μM): −0.03; red blood cell lysis ([1]; Concentration 4 μM): 0.35; red blood cell lysis ([1]; Concentration 8 μM): −0.03; red blood cell lysis ([1]; Concentration 16 μM): −0.03; red blood cell lysis ([1]; Concentration 32 μM): −0.02; red blood cell lysis ([1]; Concentration 63 μM): 0.07; red blood cell lysis ([1]; Concentration 125 μM): −0.02; red blood cell lysis ([1]; Concentration 250 μM): 0.02; red blood cell lysis [1, 5]: 0.27
Cc1cc(-c2cc(C)c(O)c(C)c2)cc(C)c1O [Compound A3]	> 250	> 250	> 250	–
CCCc1c(C)cc(C)c(-c2c(C)cc(C)c(CCC)c2O)c1O [Compound A4, 4,4’,6,6′-Tetramethyl-3,3′-dipropyl-[1,1′-diphenyl]2,2′-diol]	> 250	> 250	> 250	–
C=CCc1c(C)cc(C)c(-c2c(C)cc(C)c(CC=C)c2O)c1O [Compound A5, 3,3′Diallyl-4,4′,6,6′-tetramethyl-[1,1′-biphenyl]-2,2′-diol]	> 250	> 250	> 250	–
Cc1cc(-c2cc(C)c(O)c(C(C)(C)C)c2)c(C(C)C)cc1O [Compound A7]	32 (≈ 10 µg/mL)	32 (≈ 10 µg/mL)	16 (≈ 5 µg/mL)	MBC (S. mutans): 32 µM (≈ 10 µg/mL)
Cc1cc(O)c(-c2cc(C(C)C)c(O)c(C(C)C)c2)c(C)c1C [Compound A9, 3′,5′-Diisopropyl-4,5,6-trimethyl-[1,1′-biphenyl]-2,4′-diol]	> 250	> 250	> 250	–
C=CCc1cc(-c2cc(C)c(O)cc2C(C)C)cc(CC=C)c1O [Compound A10, 3′,5′-Diallyl-2-isopropyl-5-methyl-[1,1′-biphenyl]-4,4′-diol]	250 (≈ 80.6 µg/mL)	> 250	250 (≈ 80.6 µg/mL)	–
Cc1cc(-c2c(O)ccc3ccccc23)cc(C)c1O [Compound B1, 1-(4-Hydroxy-3,5-dimethylphenyl)naphthalene-2-ol]	> 250	> 250	> 250	–
COc1cc(-c2c(O)ccc3ccccc23)cc(OC)c1O [Compound B2, 1-(4-Hydroxy-3,5-dimethoxyphenyl)naphthalen-2-ol]	> 250	> 250	> 250	–
CC(C)c1cc(-c2c(O)ccc3cc(Br)ccc23)cc(C(C)C)c1O [Compound B6, 6-Bromo-1-(4-hydroxy-3,5-diisopropylphenyl)naphthalen-2-ol]	> 250	> 250	> 250	–
CC(C)c1cc(-c2c(O)ccc3cc(-n4cccn4)ccc23)cc(C(C)C)c1O [Compound B13, 1-(4-Hydroxy-3,5-diisopropylphenyl)-6-(1H-pyrazol-1-yl)naphthalen-2-ol]	> 250	> 250	> 250	–
